ChEMBL document CHEMBL4152278 (Eur J Med Chem, 2018)

system: Influenza A virus; assay: Antiviral activity against Influenza A virus (A/WSN/1933(H1N1)) infected in MDCK cells expressing neuraminidase H275Y mutant assessed as protection against virus-induced cytopathic effect after 48 hrs by CellTiter96 aqueous non-radioactive cell proliferation assay; assay type: functional, organism-based

Going from `CCC(CC)O[C@@H]1C=C(C(=O)O)C[C@H](N)[C@H]1NC(C)=O` [OSELTAMIVIR CARBOXYLATE] to `CCC(CC)O[C@@H]1C=C(C(=O)O)C[C@H](NC(=N)N)[C@H]1NC(C)=O`, the EC50 falls from 26000 nM to 2100 nM (12-fold). The second is the more potent here.

Compared with `CCCCCCCC(=O)/N=C(\N)N[C@H]1CC(C(=O)O)=C[C@@H](OC(CC)CC)[C@@H]1NC(C)=O`, `CCCCCCCC(=O)/N=C(\N)N[C@H]1C=C(C(=O)O)O[C@@H]([C@H](O)[C@H](O)CO)[C@@H]1NC(C)=O` is 14-fold lower in EC50: 6600 nM for the first, 480 nM for the second. The second is the more potent here.

First: COc1ccc2cc([C@H](C)C(=O)/N=C(\N)N[C@H]3C=C(C(=O)O)O[C@@H]([C@H](O)[C@H](O)CO)[C@@H]3NC(C)=O)ccc2c1
Second: CCC(CC)O[C@@H]1C=C(C(=O)O)C[C@H](N/C(N)=N/C(=O)[C@@H](C)c2ccc3cc(OC)ccc3c2)[C@H]1NC(C)=O
The EC50 of the first is 21-fold lower: 900 nM for the first, 19000 nM for the second.

`CC(=O)N[C@H]1[C@H]([C@H](O)[C@H](O)CO)OC(C(=O)O)=C[C@@H]1NC(=N)N` [ZANAMIVIR] was tested, and the EC50 was 150 nM.
